{"source": "patent US9023385B2", "about": "“Pharmaceutical use of 2-(4-morpholinoaniline)-6-cyclohexyl aminopurine and/or salt thereof for improving liver functioning” (Zhangzhou Pien Tze Huang Pharmaceutical Co., Ltd., priority 2011, dated 2015)", "key": {"[1]": {"tested_on": "activated rat hepatic stellate cells", "settings": "5-10 μM", "procedure": "The isolation of the rat hepatic stellate cells: The liver of an adult male Sprague-Dawley rats (500-600 g) were excised out after perfusion with pronase and collagenase. The liver tissue was homogenized and centrifuged. […] The cells were cultured in DMEM (Dulbecco Meliorated Eagle Medium) with 20% FBS inside culture plates at a cell density of 1.5×10^5 cells/cm^2. After two days incubation, the culture medium was changed and the cell debris was washed and removed.\nThe culture condition of rat hepatic stellate cells: The rat hepatic stellate cells were cultured in DMEM containing 20% fetal bovine serum (FBS), penicillin (100 U/ml) and streptomycin (100 ug/ml) at 37° C. in 5% CO2. The culture medium was changed for every fourth day.\nThe inhibitory effect of 2-(4-morpholinoaniline)-6-cyclohexyl aminopurine on activated rat hepatic stellate cells: The cells were treated with 5-10 μM of 2-(4-morpholinoaniline)-6-cyclohexyl aminopurine for 24 hours. The treated cells were then collected for Microarrays analysis. The treated cells were also processed for immunofluorescence staining and RT-PCR quantification.\nThe western blot analysis: The cells are disrupted in 200 μl lysis buffer (50 mM NaCl, 20 mM Tris (trihydroxymethyl aminomethane) pH 7.6, 1% Nonidet P-40, 1× protease inhibitor compounds) for 1 hour at 4° C. After incubation, the lysate was centrifuged at 16,000×g for 10 mins. The supernatant was transferred to a new tube and a protein quantification kit was used to quantify the concentration of proteins in each samples. 25 μg of total protein from each sample was loaded into the 10% SDS PAGE gel for analysis. Collagen-I, MMP-2, MMP-3, TIMP-2 and TIMP-3 mouse monoclonal antibodies (Santa Cruz Lab) were used to analyze the samples. Beta-actin and beta-tubulin monoclonal antibodies (1:1000 diluted) were used as internal control and normalization."}, "[2]": {"tested_on": "CCl4-induced liver fibrosis", "settings": "Sprague-Dawley rats, CCl4 i.p. 6 weeks, then 50 or 100 μg/kg i.p. twice a week for two or four weeks", "description": "Twenty-four adult male Sprague-Dawley rats (500-600 g) were divided into 4 groups (n=6), the first group (control) was injected with carbon tetrachloride (CCl4) intraperitonally (i.p.) twice per week for 6 weeks to induce liver fibrosis. […] At the end of the experimentation, the different groups of rats were sacrificed and samples of the liver were collected and fixed in 4% buffered formalin for 24 hours. Paraffin embedded samples were sectioned for histology and immunohistochemistry. Liver samples were also collected and stored in −20° C. for Western Blot Analysis and RT-PCR quantification."}}, "note": "Entries after “also recorded” stand apart in the source; their conditions may differ."}
{"smiles": "c1nc2c(NC3CCCCC3)nc(Nc3ccc(N4CCOCC4)cc3)nc2[nH]1", "note": "[2-(4-morpholinoaniline)-6-cyclohexyl aminopurine]", "values": [{"measurement": "Expression and synthesis of matrix metalloproteinases-2 (MMP-2) by activated hepatic stellate cells", "setting": "[1]; treatment for 3 days (FIG. 3B)", "value": "inhibited them from expressing and synthesizing and MMP-2; also recorded: suppressed activated hepatic stellate cells from expressing and synthesizing MMP-2 and MMP-3"}, {"measurement": "Expression and synthesis of matrix metalloproteinases-3 (MMP-3) by activated hepatic stellate cells", "setting": "[1]; treatment for 3 days (FIG. 3D)", "value": "inhibited them from expressing and synthesizing MMP-3; also recorded: suppressed activated hepatic stellate cells from expressing and synthesizing MMP-2 and MMP-3"}, {"measurement": "Expression and synthesis of tissue inhibitor of metalloproteinase-2 (TIMP-2) by activated hepatic stellate cells", "setting": "[1]; treatment for 3 days (FIG. 4B)", "value": "could inhibit activated hepatic stellate cells from expressing and synthesizing TIMP-2; also recorded: could inhibit the cells from producing TIMP-2 and TIMP-3"}, {"measurement": "Expression and synthesis of TIMP-3 by activated hepatic stellate cells", "setting": "[1]; treatment for 3 days (FIG. 4D)", "value": "inhibited them from expressing and synthesizing TIMP-3; also recorded: could inhibit the cells from producing TIMP-2 and TIMP-3"}, {"measurement": "Collagen synthesis in liver (histology, FIG. 5)", "setting": "[2]", "value": "effective in inhibiting collagen synthesis"}]}
